What all share (type): cell-based
The subject of experiment [1] is EBC-1 cell line (high c-Met-expressing). Description: In vitro cytotoxicity (CellTiter-Glo), EBC-1. To be noted: 4 nights incubation; n = 2. As for the experimental part: (§1) Cytotoxicity of the ADCs from Example 3 comprising either MCvcPABC-MMAE or MTvcCompound 1 was tested in vitro against a variety of tumor cell lines expressing the target surface antigen (c-Met) as described below. The following cell lines were used (Table 9.1).
(§2) Each of the cell lines shown in Table 9.1 was grown in the respective complete growth medium until assay day. After removal from the culture vessels using Trypsin-EDTA, cells were counted using a Scepter™ Cell Counter (Sigma-Aldrich Canada, Oakville, ON). Cells were diluted in complete growth medium to 20,000 cells/mL, such that 50 μL/well in 384-well plates equaled 1,000 cells/well, unless otherwise specified. All ADCs were diluted to 15 nM starting concentration in complete growth medium (RPMI 1640) followed by a 1:3 dilution in sterile 96-well dilution plates (final volume 200 μL/well). Samples (20 μL/well) were transferred into a 384-well plate in duplicate. Plates were then seeded with 20,000 cell/mL suspension of test cell line (50 μL/well), unless otherwise specified. […] After incubation, cell viability was quantified by adding 1×CellTiter-Glo® reagent (Promega Corporation, Madison, WI) at 10 μL/well. After incubating for 30 min in the dark, luminescence was measured using a Synergy™ H1 Hybrid Multi-Mode Reader (BioTek Instruments Inc., Winooski, VT). Data was analyzed with Prism 7 software (GraphPad Prism Software).

The test system of experiment [2] is BT-20 cell line (low c-Met expressing). In words: In vitro cytotoxicity (CellTiter-Glo), BT-20. To be noted: 4 nights incubation; n = 2; IC = cytotoxicity shown but curve not optimal for accurate EC50. On the procedure:
as §1, §2

Experiment [3] deals with H292 cell line (mid c-Met expressing). Description: In vitro cytotoxicity (CellTiter-Glo), H292. To be noted: 4 nights incubation; n = 2; IC = cytotoxicity shown but curve not optimal for accurate EC50. As for the experimental part:
as §1, §2

The test system of experiment [4] is HCC827 cell line (mid c-Met expressing). Description: In vitro cytotoxicity (CellTiter-Glo), HCC827. To be noted: 4 nights incubation; n = 2. On the procedure:
as §1, §2

Square brackets hold non-standard residues; d marks the D form. Peptide text beside a SMILES is read from it. * marks the point of attachment. Dolaproine = CO[C@@H]([C@@H]1CCCN1)[C@@H](C)C(=O)O; Dil = CC[C@H](C)[C@H](NC)[C@@H](CC(=O)O)OC; X1 = C[C@@H](N*)[C@@H](O)c1ccccc1; NMeV = CN[C@H](C(=O)O)C(C)C

On to `CC[C@H](C)[C@@H]([C@@H](CC(=O)N1CCC[C@H]1[C@H](OC)[C@@H](C)C(=O)N[C@H](C)[C@@H](O)c1ccccc1)OC)N(C)C(=O)[C@@H](NC(=O)[C@@H](NC)C(C)C)C(C)C` [MMAE] (H-[NMeV]V[Dil][Dolaproine]-X1), for which the EC50 in experiment [1] amounted to 0.16 nM; in experiment [2] it was 0.13 nM; in experiment [3], 0.11 nM; in experiment [4], 0.36 nM.

Values taken from patent publication US20260042847A1, “CYSTEINE ENGINEERED ANTIBODY CONSTRUCTS, CONJUGATES AND METHODS OF USE” (ZYMEWORKS INC., priority 2021, published 2026).
